We go through two molecules from US20110166118A1, “NEW TRINEM ANTIBIOTICS AND INHIBITORS OF BETA-LACTAMASES” (LEK PHARMACEUTICALS D.D., priority 2008, published 2011).

What is called IC50 is the concentration that inhibits the measured activity by half. Low readings indicate greater potency in that assay, high ones weaker potency in that assay. For orientation: MIC means the lowest concentration found to suppress growth. Low readings indicate inhibition by little substance, high ones a need for much substance.

The target in data set [1] is class A beta-lactamase SHV-1 (Escherichia coli, UniProt P0AD63). The data set can be described thus: IC50 determination with nitrocefin, SHV-1. The data set is classed as biochemical, E. coli. The method, then:
(§1) The IC50 value represents the concentration of inhibitor required to effect a 50% loss of activity of free enzyme. A standard test for the production of beta-lactamase involves use of the chromogenic cephalosporin, nitrocefin.
(§2) Homogeneously purified class A beta-lactamases TEM-1 and SHV-1 from E. coli and class C enzyme P99 from Enterobacter cloaca were employed in the assay.
(§3) All the enzymes and compounds were dissolved in 50 mM phosphate buffer pH 7.0 and all further dilutions were done with the same buffer solution. Enzyme and compound dilutions were pre-incubated for 30 min at 37° C. and in a final volume of 500 μl. Than 10 μl of 5 mM nitrocefin (reporter substrate) was added to the solution and the absorbance at 482 nm was measured during 2 to 5 minutes. The initial rate was calculated for all the different solutions.

Data set [2] addresses class A beta-lactamase TEM-1 (Escherichia coli, UniProt P62593). Put plainly: IC50 determination with nitrocefin, TEM-1. The note with it: pre-incubated 30 min at 37° C., phosphate buffer pH 7.0, nitrocefin. Type of data set: biochemical, E. coli. On the procedure:
as §1, §2, §3

Data set [3] deals with class C beta-lactamase P99 (AmpC) (Enterobacter cloacae, UniProt P05364). Put plainly: biochemical. The data set is classed as biochemical. On the procedure: as §1, §2, §3
class C beta-lactamase P99 (AmpC), sequence (P05364 21-381): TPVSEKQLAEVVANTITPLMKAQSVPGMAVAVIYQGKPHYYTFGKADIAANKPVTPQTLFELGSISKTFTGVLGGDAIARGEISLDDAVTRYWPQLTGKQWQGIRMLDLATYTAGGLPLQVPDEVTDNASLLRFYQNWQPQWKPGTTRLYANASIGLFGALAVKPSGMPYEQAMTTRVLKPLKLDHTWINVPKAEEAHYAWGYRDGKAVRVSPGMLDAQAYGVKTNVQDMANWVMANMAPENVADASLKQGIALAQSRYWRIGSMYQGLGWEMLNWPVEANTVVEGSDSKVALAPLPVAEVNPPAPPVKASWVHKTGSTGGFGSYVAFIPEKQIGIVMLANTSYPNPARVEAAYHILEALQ
Data set [4] relates to E. cloacae Lek 14, derepressed (AmpC). The data set can be described thus: Broth microdilution MIC, S2. The data set is classed as cell-based. The following applies: CAMHB, 35° C., 24 h, duplicate. On the procedure:
(§4) Stock solutions of the test compounds and Tazocin® were prepared in distilled water according to the CLSI guidelines [Methods for dilution antimicrobial tests for bacteria that grow aerobically. NCCLS document M7-A5; 2000; vol. 19. Clinical and Laboratory Standards Institute, Villanova, Pa.].
(§5) All tested strains and clinical isolates were either purchased from the American Type Culture Collection (ATCC), or from the in-house company culture collection. The tested strains were purely used for the purposes of illustrative example, and are by no means essential for performing the invention.
(§6) The strains were processed according to procedures recommended by ATCC, or procedures that are routinely used. Frozen bacterial stocks were thawed to room temperature, and a few drops were placed on an appropriate blood agar plate. The cultures were subcultured on a fresh Mueller-Hinton agar plate (MHA) the following day, and the subcultures were again incubated overnight.
(§7) Bacterial suspensions with a turbidity equivalent to that of a 0.5 McFarland standard were prepared by suspending a tiny portion of one colony from blood agar plates in 2 mL of sterile saline. […]
(§8) The in vitro activities of the antibiotics were determined by the broth microdilution method as recommended by CLSI guidelines. […]
In general terms: Dilution methods test growth across graded concentrations, often in twofold steps.

Data set [5] deals with E. cloacae 4013. Put plainly: Broth microdilution MIC, S3. Type of data set: cell-based. The note with it: Enterobacter cloacae, CAMHB, 35° C., 24 h, duplicate. The method, then: as §4, §5, §6, §7, §8
Data set [6] has as its system K. pneumoniae ATCC 700603 (SHV-18). Put plainly: Broth microdilution MIC, S8. Type of data set: cell-based. The note with it: Klebsiella pneumoniae, ATCC700603, CAMHB, 35° C., 24 h, duplicate. On the procedure:
as §4, §5, §6, §7, §8

Data set [7] concerns C. freundii Lek 17 (AmpC). The data set can be described thus: Broth microdilution MIC, S19. Type of data set: cell-based. The following applies: Citrobacter freundii, CAMHB, 35° C., 24 h, duplicate. The method, then: as §4, §5, §6, §7, §8
Data set [8] relates to E. coli B308. The data set can be described thus: Broth microdilution MIC, S12. The note with it: Escherichia coli, CAMHB, 35° C., 24 h, duplicate. The data set is classed as cell-based. On the procedure:
as §4, §5, §6, §7, §8

The test system of data set [9] is E. faecalis ATCC 29212. The data set can be described thus: Broth microdilution MIC, S5. The data set is classed as cell-based. The following applies: Enterococcus faecalis, ATCC29212, CAMHB, 35° C., 24 h, duplicate. The method, then: as §4, §5, §6, §7, §8
The subject of data set [10] is E. caerogenes ATCC 29751 (class II). The data set can be described thus: Broth microdilution MIC, S4. Type of data set: cell-based. The following applies: CAMHB, 35° C., 24 h, duplicate. On the procedure:
as §4, §5, §6, §7, §8

Data set [11] has as its system E. faecium Lek 116. The data set can be described thus: Broth microdilution MIC, S15. Type of data set: cell-based. The following applies: Enterococcus faecium, LEK116, CAMHB, 35° C., 24 h, duplicate. The method, then: as §4, §5, §6, §7, §8
Data set [12] relates to E. faecalis Lek 112. Put plainly: Broth microdilution MIC, S14. The data set is classed as cell-based. The note with it: Enterococcus faecalis, LEK112, CAMHB, 35° C., 24 h, duplicate. On the procedure: as §4, §5, §6, §7, §8
Data set [13] concerns K. pneumoniae B401 (TEM-10, TEM-12). The data set can be described thus: Broth microdilution MIC, S17. The following applies: Klebsiella pneumoniae, CAMHB, 35° C., 24 h, duplicate. The data set is classed as cell-based. The method, then:
as §4, §5, §6, §7, §8

In data set [14] the test system is E. coli B309. Put plainly: Broth microdilution MIC, S13. The data set is classed as cell-based. The following applies: Escherichia coli, CAMHB, 35° C., 24 h, duplicate. On the procedure:
as §4, §5, §6, §7, §8

In data set [15] the test system is K. pneumoniae Lek 8. Put plainly: Broth microdilution MIC, S16. The following applies: Klebsiella pneumoniae, LEK8, CAMHB, 35° C., 24 h, duplicate. The data set is classed as cell-based. The method, then:
as §4, §5, §6, §7, §8

In data set [16] the test system is K. pneumoniae B312 (SHV-18). The data set can be described thus: Broth microdilution MIC, S6. Type of data set: cell-based. The note with it: Klebsiella pneumoniae, CAMHB, 35° C., 24 h, duplicate. On the procedure:
as §4, §5, §6, §7, §8

The test system of data set [17] is E. cloacae Lek 24 (AmpC). The data set can be described thus: Broth microdilution MIC, S1. Type of data set: cell-based. The following applies: CAMHB, 35° C., 24 h, duplicate. The method, then:
as §4, §5, §6, §7, §8

Data set [18] deals with C. freundii B318 (CTX-M). Put plainly: Broth microdilution MIC, S10. The data set is classed as cell-based. The note with it: Citrobacter freundii, CAMHB, 35° C., 24 h, duplicate. The method, then: as §4, §5, §6, §7, §8
Data set [19] deals with ceftazidime-resistant strains. Put plainly: Broth microdilution susceptibility assay, overall comparison. Type of data set: cell-based. The following applies: in words, several ceftazidime-resistant strains tested. On the procedure:
as §4, §5, §6, §7, §8

Data set [20] concerns K. pneumoniae Lek 22. Put plainly: Broth microdilution MIC, S18. Type of data set: cell-based. The following applies: Klebsiella pneumoniae, LEK22, CAMHB, 35° C., 24 h, duplicate. On the procedure: as §4, §5, §6, §7, §8
Data set [21] has as its system C. freundii B271 (SHV-5). Put plainly: Broth microdilution MIC, S9. The note with it: CAMHB, 35° C., 24 h, duplicate. Type of data set: cell-based. The method, then:
as §4, §5, §6, §7, §8

Data set [22] has as its system K. pneumoniae DSA 1461. The data set can be described thus: Broth microdilution MIC, S7. The data set is classed as cell-based. The note with it: Klebsiella pneumoniae, DSA1461, CAMHB, 35° C., 24 h, duplicate. On the procedure: as §4, §5, §6, §7, §8
Setting [23] is: in words, compared to tazobactam.

SMILES strings stand for the structures.

class A beta-lactamase SHV-1, sequence (P0AD63 22-286): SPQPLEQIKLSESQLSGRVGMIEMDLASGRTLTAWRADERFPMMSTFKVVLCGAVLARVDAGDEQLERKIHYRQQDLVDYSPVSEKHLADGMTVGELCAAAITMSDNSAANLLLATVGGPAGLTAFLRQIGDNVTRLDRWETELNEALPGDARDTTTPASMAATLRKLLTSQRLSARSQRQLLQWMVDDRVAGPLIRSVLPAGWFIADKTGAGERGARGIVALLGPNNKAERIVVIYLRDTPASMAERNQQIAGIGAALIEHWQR
class A beta-lactamase TEM-1, sequence (P62593 24-286 limits assumed): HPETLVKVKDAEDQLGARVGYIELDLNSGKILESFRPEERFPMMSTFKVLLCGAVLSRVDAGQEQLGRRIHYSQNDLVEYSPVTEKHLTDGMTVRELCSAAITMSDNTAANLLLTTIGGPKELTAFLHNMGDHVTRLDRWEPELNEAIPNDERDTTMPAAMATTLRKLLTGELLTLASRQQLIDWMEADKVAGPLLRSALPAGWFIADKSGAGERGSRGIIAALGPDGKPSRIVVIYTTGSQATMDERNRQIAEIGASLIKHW

Regarding `CO[C@H]1CCC[C@H]2C1=C(C(=O)O)N1C(=O)[C@H]([C@H](O)C(F)(F)F)[C@@H]21` [LK-178, Sodium (4S,8S,9R,10S)-4-methoxy-10-[1-(S)-hydroxy-2,2,2-trifluoroethyl]-11-oxo-azatricyclo[7.2.0.0^3,8]undec-2-ene-2-carboxylate], the values for the concentration for half-maximal inhibition (IC50) in data set [1], in [2] and in data set [3] were 1100 nM, 8400 nM and 419 nM, respectively.

Turning to `CO[C@H]1CCC[C@H]2C1=C(C(=O)[O-])N1C(=O)[C@H]([C@H](O)CF)[C@@H]21.[Na+]` [LK-180, Sodium salt of (4S,8S,9R)-4-methoxy-10-(1-(S)-hydroxy-fluoroethyl)-11-oxo-1-azatricyclo-[7.2.0.0 (3,8)]undec-2-ene-2-carboxylic acid], the results for the IC50 in data set [1], in data set [2] and in data set [3] were 12 nM, 500 nM and 0.5 nM, respectively. Moreover, the “activity against SHV-1 enzyme as compared to tazobactam” value in [1] (setting [23]) is “highly potentiated activity”. For the same molecule, the “MIC S2” value in data set [4] is 4 µg/mL. Further, the minimum inhibitory concentration (MIC) amounted to 64 µg/mL in data set [5]; 2 µg/mL in data set [6]; 8 µg/mL in data set [7]; 4 µg/mL in data set [8]; 4 µg/mL in data set [9]; 16 µg/mL in data set [10]. The MIC in [11] was 32 µg/mL; in data set [12] it was 4 µg/mL; in [13] it was 8 µg/mL; in data set [14] it was 4 µg/mL; in [15], 16 µg/mL; in data set [16], 8 µg/mL. In addition, the minimum inhibitory concentration (MIC) in data set [17] (Enterobacter cloacae) came out at 8 µg/mL; in data set [18] it was 128 µg/mL; in data set [20], 32 µg/mL; in [22], 4 µg/mL. In addition, the “activity against AmpC enzyme as compared to tazobactam” value in data set [3] (setting [23]) is on record as “highly potentiated activity”. The “MIC S1” value in data set [17] was 4 µg/mL. For the same molecule, the “antibiotic activity compared to Tazocin®” value in data set [19] is given as “superior to Tazocin®”. Besides, in [21], the “MIC S9” value stood at 16 µg/mL.
